The values below come from ChEMBL document CHEMBL1201862, “PubChem BioAssay data set” (2004).

Some test systems named below: SK-MEL-28; NCI-H522; NCI-H460; CCRF-CEM; CAKI-1; SK-MEL-2; SK-OV-3; 786-0; UACC-62; LXFL 529; HCT-116; SNB-75; SF-295; M14; MOLT-4; HCC 2998; RPMI-8226; NCI-H226; MDA-N; PC-3.
Holding throughout (test): NCI anticancer screen, dose series, 48 h

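Five compound concentrations were applied to cells in 96-well plates for 48 hours; endpoints were derived by simple linear interpolation of the resulting dose-response curve. GI50 = concentration required for 50% inhibition of growth.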 Active and inactive are the calls of the source. No stated cut-off is given here; in the data, active = GI50 up to about 1.1 µM and inactive = higher. Some results are limits rather than exact numbers.

Take `N/C(=N\O)N/N=C/c1ccc(C(F)(F)F)cc1`: the GI50 in the assay with SK-MEL-28 is 62.4 µM (inactive); in the assay on NCI-H522, 10.3 µM (inactive); with NCI-H460 it was 5.04 µM (inactive); in the assay on CCRF-CEM it was 9.68 µM (inactive); in the assay on CAKI-1, 6.46 µM (inactive); in the assay with SK-MEL-2 it was 18.2 µM (inactive). Also, the GI50 in the assay with SK-OV-3 is 6.98 µM (inactive); with 786-0, 9.73 µM (inactive); in the assay with UACC-62, 4.66 µM (inactive); in the assay with LXFL 529, 10.9 µM (inactive); in the assay on HCT-116, 32.9 µM (inactive); with SNB-75, 26.7 µM (inactive). Further, the results for the GI50 in the assay on SF-295 and in the assay with M14 were 26 µM (inactive) and 10.6 µM (inactive), respectively.
With `COC1OC(CO)C(O)C(O)C1Br` (configuration not stated), the GI50 in the assay with SK-MEL-28, in the assay on NCI-H522, with NCI-H460, with MOLT-4, in the assay on CCRF-CEM and in the assay on CAKI-1 was > 100 µM (inactive) in each case. Moreover, the GI50 in the assay on HCC 2998, in the assay on 786-0, with UACC-62, with LXFL 529, in the assay with HCT-116 and in the assay with RPMI-8226 was > 100 µM (inactive) throughout. Also, the GI50 in the assay with SF-295 and with M14 was > 100 µM (inactive) throughout.
For the molecule `COc1ccc2c3c(c(C(=O)c4ccccc4)oc13)CCC2`, the GI50 in the assay on SK-MEL-28, in the assay with NCI-H460, in the assay on MOLT-4, in the assay on CCRF-CEM, with CAKI-1 and in the assay with HCC 2998 was > 100 µM (inactive) throughout. The GI50 with SK-OV-3, with 786-0, in the assay with UACC-62, with LXFL 529, with HCT-116 and with RPMI-8226 was > 100 µM (inactive) throughout. Also, the GI50 in the assay with SNB-75 was 81.5 µM (inactive); in the assay with SF-295, > 100 µM (inactive); with M14, > 100 µM (inactive).
`CC(C)=CC(O)C/C(C)=C/CC/C(C)=C/CCC1(C)C(CCCO)/C(=C(/C)C=O)CCC1(C)O` (configuration not stated): the GI50 in the assay on SK-MEL-28 was 29.6 µM (inactive); in the assay on NCI-H522 it was 39.7 µM (inactive); in the assay on NCI-H460, 25.6 µM (inactive); with MOLT-4, 24.7 µM (inactive); in the assay on CCRF-CEM it was 30.5 µM (inactive); in the assay with CAKI-1, 41.9 µM (inactive). Moreover, the GI50 with SK-MEL-2 is 59.3 µM (inactive); with HCC 2998, 26.4 µM (inactive); with SK-OV-3, 47.8 µM (inactive); in the assay with 786-0, 35.7 µM (inactive); in the assay with UACC-62, 35.9 µM (inactive); with NCI-H226 it was 74.3 µM (inactive). For the same molecule, the GI50 is 40 µM (inactive) with HCT-116; 21.3 µM (inactive) in the assay on RPMI-8226; 22.1 µM (inactive) in the assay with MDA-N; > 100 µM (inactive) with SNB-75; 28.8 µM (inactive) in the assay with SF-295; 44.8 µM (inactive) in the assay on PC-3. In addition, in the assay with M14, the GI50 was 26.1 µM (inactive).
Take `CN(CCCNC(=O)c1cc(-c2ccccc2)nc2ccccc12)CCCNC(=O)c1cc(-c2ccccc2)nc2ccccc12`: the GI50 was 1.83 µM (inactive) in the assay on SK-MEL-28; 1.77 µM (inactive) with NCI-H522; 1.78 µM (inactive) in the assay on NCI-H460; 2.45 µM (inactive) with MOLT-4; 3.73 µM (inactive) in the assay with CCRF-CEM; 9.16 µM (inactive) with CAKI-1. The GI50 in the assay with SK-MEL-2 is 1.96 µM (inactive); in the assay on HCC 2998, 1.93 µM (inactive); with SK-OV-3 it was 13 µM (inactive); with 786-0, 1.7 µM (inactive); in the assay with UACC-62 it was 2.07 µM (inactive); in the assay with NCI-H226 it was 3.81 µM (inactive). Moreover, the GI50 with HCT-116 was 1.79 µM (inactive); in the assay on RPMI-8226, 2.8 µM (inactive); in the assay with MDA-N it was 1.8 µM (inactive); with SNB-75 it was 2.33 µM (inactive); in the assay on SF-295, 1.77 µM (inactive); with PC-3, 3.56 µM (inactive). Moreover, the GI50 in the assay with M14 is 1.71 µM (inactive).
As to `O=Cc1cn(S(=O)(=O)c2ccccc2)c2ccccc12`, the GI50 with SK-MEL-28 is 32.4 µM (inactive); in the assay on NCI-H460 it was > 100 µM (inactive); in the assay with MOLT-4, 16.3 µM (inactive); in the assay on CCRF-CEM, 23.3 µM (inactive); in the assay with HCC 2998, > 100 µM (inactive); in the assay on SK-OV-3 it was > 100 µM (inactive). In addition, the GI50 was 55.5 µM (inactive) with 786-0; 26.9 µM (inactive) in the assay with UACC-62; 36.4 µM (inactive) with LXFL 529; 70.3 µM (inactive) in the assay on NCI-H226; 20 µM (inactive) with HCT-116; 20.8 µM (inactive) in the assay on RPMI-8226. The GI50 with SNB-75 was 26.2 µM (inactive); in the assay with SF-295 it was 48.3 µM (inactive); with M14, 31.3 µM (inactive).
`COc1ccc2c3c([nH]c2c1[N+](=O)[O-])C(C)N(Cc1ccccc1)CC3` (configuration not stated): the GI50 in the assay with SK-MEL-28 is 7.69 µM (inactive); with NCI-H460, 2.94 µM (inactive); in the assay on MOLT-4, 3.2 µM (inactive); in the assay on CCRF-CEM, 2.51 µM (inactive); in the assay on CAKI-1, 2.47 µM (inactive); in the assay with SK-MEL-2, 3.52 µM (inactive). The GI50 is 11.5 µM (inactive) in the assay with HCC 2998; 4.35 µM (inactive) in the assay on 786-0; 3.1 µM (inactive) with UACC-62; 5.07 µM (inactive) in the assay with LXFL 529; 4.49 µM (inactive) with NCI-H226; 3.08 µM (inactive) with HCT-116. For the same molecule, the GI50 is 2.43 µM (inactive) with RPMI-8226, 2.02 µM (inactive) in the assay with SF-295 and 3.76 µM (inactive) in the assay on M14.
For the molecule `CC(C)(C)c1cc(C#N)c2c(c1)C(=O)OC2(c1ccccc1)c1ccccc1C#N` (configuration not stated), the GI50 in the assay with SK-MEL-28 was > 100 µM (inactive); in the assay on NCI-H522 it was 12.3 µM (inactive); in the assay on NCI-H460, > 100 µM (inactive); in the assay with MOLT-4, 23.8 µM (inactive); in the assay with CCRF-CEM it was > 100 µM (inactive); in the assay with CAKI-1 it was > 100 µM (inactive). The GI50 with SK-MEL-2, in the assay with SK-OV-3, in the assay with 786-0, with UACC-62, in the assay on LXFL 529 and in the assay with NCI-H226 was > 100 µM (inactive) each time. Besides, the GI50 in the assay on HCT-116 was > 100 µM (inactive); with SNB-75, 42.8 µM (inactive); in the assay on SF-295, 78.3 µM (inactive); in the assay on M14, > 100 µM (inactive).
In the case of `COc1c(C)cc2c(c1O)C1NC(C2)[C@H](O)N2C3COC(=O)[C@@]4(CS[C@@H](c5c(OC(C)=O)c(C)c6c(c53)OCO6)C12)NCCC1=C4NC2C=CC=CC12` (some centres not stated), the GI50 in the assay on SK-MEL-28, with NCI-H460, in the assay with MOLT-4, in the assay on CCRF-CEM, in the assay on SK-MEL-2 and in the assay on HCC 2998 was < 0.01 µM (active) in each case. Moreover, the GI50 with 786-0, with UACC-62, in the assay with LXFL 529, in the assay with NCI-H226, in the assay on HCT-116 and with RPMI-8226 was < 0.01 µM (active) throughout. Besides, the GI50 in the assay with SNB-75, with SF-295 and with M14 was < 0.01 µM (active) each time.
Take `O=S1(=O)c2ccccc2-c2nccc3ccnc1c23`: the GI50 with SK-MEL-28 was 55.6 µM (inactive); in the assay with NCI-H522 it was 8.07 µM (inactive); in the assay with NCI-H460 it was 13.1 µM (inactive); with MOLT-4, 2.72 µM (inactive); in the assay with CCRF-CEM, 4.02 µM (inactive); in the assay with CAKI-1 it was 15.3 µM (inactive). Further, the GI50 in the assay with SK-MEL-2 was 28.7 µM (inactive); in the assay on HCC 2998, 12.8 µM (inactive); with SK-OV-3, 56.9 µM (inactive); with 786-0, 25.5 µM (inactive); with UACC-62, 7.59 µM (inactive); with NCI-H226 it was 43.5 µM (inactive). The GI50 is 12.9 µM (inactive) in the assay with HCT-116; 16.2 µM (inactive) in the assay on RPMI-8226; 7.87 µM (inactive) in the assay on MDA-N; 27.7 µM (inactive) in the assay with SNB-75; 25 µM (inactive) in the assay on SF-295; 7.31 µM (inactive) in the assay with PC-3. Moreover, the GI50 in the assay with M14 was 19.1 µM (inactive).
With `Cc1ccc(C)c(NC(=O)C(=O)C(C2C(C)CC(=O)C2CC(=O)O)[N+](=O)[O-])c1` (configuration not stated), the GI50 in the assay on SK-MEL-28, in the assay with NCI-H460, in the assay on MOLT-4, with CCRF-CEM, with CAKI-1 and in the assay with SK-MEL-2 was > 100 µM (inactive) each time. Also, the GI50 with HCC 2998, with SK-OV-3, with 786-0, with UACC-62, in the assay on LXFL 529 and in the assay on NCI-H226 was > 100 µM (inactive) each time. Besides, the GI50 in the assay with HCT-116, in the assay on RPMI-8226, in the assay on SNB-75, in the assay on SF-295 and in the assay with M14 was > 100 µM (inactive) each time.
With `CC[C@@]1(O)C(=O)OCc2c1cc1n(c2=O)Cc2c-1nc1ccccc1c2/C=N/NC(=O)c1ccc(N)cc1`, the GI50 with SK-MEL-28 was 0.263 µM (active); in the assay on NCI-H522, < 0.0405 µM (active); with NCI-H460 it was 0.0796 µM (active); in the assay with MOLT-4, 0.0111 µM (active); in the assay on CCRF-CEM it was < 0.01 µM (active); in the assay with CAKI-1 it was 0.0589 µM (active). The GI50 with SK-MEL-2 is 5.37 µM (inactive); with HCC 2998 it was 1.12 µM (inactive); in the assay with SK-OV-3, 0.158 µM (active); in the assay on 786-0 it was 0.0422 µM (active); in the assay on UACC-62, 0.0208 µM (active); with NCI-H226, 0.04 µM (active). Also, the GI50 in the assay on HCT-116 is 0.1 µM (active); in the assay with RPMI-8226, 1.52 µM (inactive); with MDA-N, 0.434 µM (active); in the assay on SNB-75, 0.0489 µM (active); with SF-295 it was 0.123 µM (active); with PC-3 it was 0.177 µM (active). For the same molecule, the GI50 in the assay with M14 is 0.0585 µM (active).
